Data set [1] concerns Brazilian ZIKV strain (ZIKV-BR) in cervical cells. The data set can be described thus: Viral genome detection by RT-qPCR in supernatants of infected cervical cells. Type of data set: cell-based, Zika virus. The conditions noted are these: supernatant of cervical cells; for ZIKV genome copies/mL: MOI 10, 12 µM, 48 h, control 6.7 ± 0.7 × 10^8; for reduction of viral load: 12 µM, compared to control.

Data set [2] is described as follows: Cytotoxicity assay (PrestoBlue) in mock-infected cervical cells. Type of data set: cell-based. The conditions noted are these: human.
Data set [3] has as its system Brazilian ZIKV strain (ZIKV-BR) in cervical cells. Kind of data set: Plaque-forming reduction assay, supernatants of infected cervical cells. The data set is classed as cell-based, Zika virus. The conditions noted are these: for inhibition at 6 µM / inhibition at 12 µM / EC50 / EC90 / inhibition at 25 µM: Zika virus; for inhibition at 6 µM: MOI 10, 6 µM; for inhibition at 6 µM / inhibition at 12 µM / inhibition at 25 µM: read-out: Cervical cells PFR (%); for EC50 / EC90: plaque-forming reduction, MOI 10, 48 h; for inhibition at 25 µM: MOI 10, 25 µM.

Data set [4] has the same test system. The data set is classed as cell-based, Zika virus. The conditions noted are these: ZIKV-BR MOI 10, 12 µM, 48 h, versus 0.12% DMSO.
Data set [5] has as its system baby hamster kidney cells (BHK-21). The conditions noted are these: cited from earlier work.
For data set [6], the system named is Brazilian ZIKV strain (ZIKV-BR) in Vero cells. The data set can be described thus: Plaque-forming reduction assay, supernatants of infected Vero cells. Type of data set: cell-based, Zika virus. The conditions noted are these: MOI 1, 12 µM, 48 h; for inhibition at 12 µM: Zika virus, read-out: Vero cells PFR (%).
The subject of data set [7] is ZIKV strain MR766 in Vero cells. Details: method as in earlier work. The conditions noted are these: cited from earlier work.
Data set [8] can be described thus: Cytotoxicity assay (PrestoBlue) in mock-infected Vero cells. The conditions noted are these: African green monkey, Vero cells (kidney). The data set is classed as cell-based.
Data set [9] relates to ZIKV-BR in Vero cells. The conditions noted are these: read-out: concentration giving 50% of viral inhibition, MOI 0.1; cited from earlier work.
Data set [10] concerns P. falciparum W2-chloroquine-resistant clone. The conditions noted are these: in vitro, read-out: IC50 antiplasmodial; cited from earlier work.
The mark [11] stands for this setting: C33-A cervical epithelial cells (mock-infected), mock-infected cervical cells, 48 h, PrestoBlue, read-out: CC50 (μM)/48 h Cervical.

For orientation: EC90 means the concentration needed for an effect of 90%. What is called IC50 is the concentration at which inhibition is half-maximal.

Structures are written as SMILES. Structures can show the parent of a compound that is named as a salt.

On to `OC(c1cc(C(F)(F)F)nc2c(C(F)(F)F)cccc12)C1CCCCN1` [Mefloquine, (R)-(2.8-bis(trifluoromethyl)quinolin-4-yl)((S)-piperidin-2-yl)methanol hydrochloride, reference compound], for which, in data set [1], the “ZIKV genome copies/mL” value is listed as 2.0 ± 0.6 × 10^5 copies/mL. The compound also had a CC50 at 48 h in data set [2] of 48.8 ± 0.2 µM. In [3], the “Cervical cells IS (selectivity index, CC50/EC50)” value is listed as 30.5; the EC50 is 1.6 ± 0.1 µM; the EC90 was found to be 3.5 ± 0.2 µM. The “Cervical cells PFR (%)” value in data set [3] (MOI 10, 12 µM, 48 h) worked out at 100%. In addition, in data set [3] (48 h, 48 h), the inhibition at 6 µM worked out at 97.7 ± 0.3%. Further, the inhibition at 12 µM in data set [3] (48 h, MOI 10, 12 µM, 48 h) was determined as 100%. Besides, the “reduction of infected cells” value in [4] is listed as 96.3% ± 3.7. In addition, the CC50 in data set [5] was 17.7 ± 3.5 µM. In data set [6], the “Vero cells PFR (%)” value turned out to be 100% and the inhibition at 12 µM was 100%. Moreover, the EC50 in data set [7] is 3.9 ± 0.2 µM. The CC50 at 48 h in data set [8] stood at 26.7 ± 0.9 µM.
On to `O=S(=O)(NCCCNc1ccnc2cc(Cl)ccc12)c1ccc(F)cc1` [C-Sd3, N-(3-((7-chloroquinolin-4-yl)amino)propyl)-4-fluorobenzenesulfonamide], for which, in data set [1], the “reduction of viral load” value is reported as 2 logs and the “ZIKV genome copies/mL” value is 4.9 ± 0.3 × 10^6 copies/mL. In data set [2] (setting [11]), the CC50 at 48 h was more than 200 µM. In data set [3] (48 h, 48 h), the inhibition at 6 µM was found to be 75 ± 1% and the inhibition at 25 µM turned out to be 100%. Further, in data set [3] (48 h, MOI 10, 12 µM, 48 h), the inhibition at 12 µM was determined as 94 ± 0.7%. For the same compound, in data set [3], the EC50 is 3.7 ± 0.1 µM and it took 10.1 ± 0.1 µM to reach the 90% level (EC90). Also, in data set [6], the inhibition at 12 µM was determined as 100%. Besides, in [8], the CC50 at 48 h came to 141 ± 4.4 µM.
`O=S(=O)(NCCCCNc1ccnc2cc(Cl)ccc12)c1ccc(Br)cc1` [C-Sd6, 4-Bromo-N-(4-((7-chloroquinolin-4-yl)amino)butyl)-benzenesulfonamide]: in [1], the “reduction of viral load” value stood at 3 logs and the “ZIKV genome copies/mL” value is reported as 2.0 ± 0.2 × 10^5 copies/mL. For the same compound, the CC50 at 48 h in data set [2] (setting [11]) is more than 200 µM. Further, in data set [3], the “Cervical cells IS (selectivity index, CC50/EC50)” value is more than 60.6; the EC50 came to 3.3 ± 0.1 µM; the EC90 worked out at 7.4 ± 0.2 µM. For the same compound, in data set [3] (48 h, 48 h), the inhibition at 6 µM came to 82 ± 0.5% and the inhibition at 25 µM is 100%. For the same compound, the inhibition at 12 µM in [3] (48 h, MOI 10, 12 µM, 48 h) was 94.8 ± 0.5%. In data set [4], the “reduction of infected cells” value is given as “over 88%”. The inhibition at 12 µM in [6] amounted to 100%. In addition, in data set [8], the CC50 at 48 h came out at 43.2 ± 0.4 µM.
As for `O=S(=O)(NCCCCNc1ccnc2cc(Cl)ccc12)c1ccc(Cl)cc1` [C-Sd5, 4-Chloro-N-(4-((7-chloroquinolin-4-yl)amino)butyl)-benzenesulfonamide], in data set [1], the “reduction of viral load” value is 3 logs and the “ZIKV genome copies/mL” value is 2.0 ± 0.4 × 10^5 copies/mL. In addition, the CC50 at 48 h in data set [2] (setting [11]) was more than 200 µM. Besides, in data set [3], the “Cervical cells IS (selectivity index, CC50/EC50)” value is reported as more than 62.5; the EC50 stood at 3.2 ± 0.1 µM; the EC90 amounted to 7.2 ± 0.1 µM. Besides, in data set [3] (48 h, 48 h), the inhibition at 6 µM amounted to 82.3 ± 0.3% and the inhibition at 25 µM is 100%. Moreover, in [3] (48 h, MOI 10, 12 µM, 48 h), the inhibition at 12 µM was found to be 99.5 ± 0.2%. Also, the inhibition at 12 µM in [6] worked out at 100%. In [8], this compound displayed a CC50 at 48 h of 52.2 ± 3.2 µM.
On to `CCN(CC)CCCC(C)Nc1ccnc2cc(Cl)ccc12` (centres unmarked) [chloroquine], for which the EC50 in [9] was 12 ± 3.2 µM.
As for `O=S(=O)(NCCCCNc1ccnc2cc(Cl)ccc12)c1ccc(F)cc1` [C-Sd7, N-(4-((7-chloroquinolin-4-yl)amino)butyl)-4-fluorobenzenesulfonamide], in data set [1], the “reduction of viral load” value amounted to 2 logs and the “ZIKV genome copies/mL” value is 2.6 ± 0.5 × 10^6 copies/mL. Besides, the CC50 at 48 h in data set [2] (setting [11]) is more than 200 µM. In data set [3] (48 h, 48 h), the inhibition at 6 µM is 75.1 ± 0.8% and the inhibition at 25 µM is 100%. Moreover, the inhibition at 12 µM in [3] (48 h, MOI 10, 12 µM, 48 h) was 94.7 ± 0.7%. In addition, in data set [3], the EC50 amounted to 3.6 ± 0.1 µM and the EC90 turned out to be 9.9 ± 0.2 µM. For the same compound, in data set [6], the inhibition at 12 µM turned out to be 100%. In data set [8], this compound yielded a CC50 at 48 h of 74.8 ± 1.2 µM.
For `O=S(=O)(NCCCCNc1ccnc2cc(Cl)ccc12)c1ccccc1` [C-Sd4, N-(4-((7-chloroquinolin-4-yl)amino)butyl)-benzenesulfonamide], in data set [1], the “reduction of viral load” value is on record as 2 logs and the “ZIKV genome copies/mL” value is 5.1 ± 0.6 × 10^6 copies/mL. In [2] (setting [11]), the CC50 at 48 h is more than 200 µM. Also, in data set [3] (48 h, 48 h), the inhibition at 6 µM amounted to 56.6 ± 0.5% and the inhibition at 25 µM is 100%. Further, the inhibition at 12 µM in data set [3] (48 h, MOI 10, 12 µM, 48 h) amounted to 92.5 ± 0.2%. In data set [3], this compound gave an EC50 of 5 ± 0.2 µM and an EC90 of 11.6 ± 0.1 µM. Besides, in data set [6], the inhibition at 12 µM came out at 100%. Moreover, in data set [8], the CC50 at 48 h turned out to be 143 ± 1.3 µM.
With `Cc1ccc(S(=O)(=O)NCCCNc2ccnc3cc(Cl)ccc23)cc1` [C-Sd1, N-(3-((7-chloroquinolin-4-yl)amino)propyl)-4-methyl-benzenesulfonamide], in data set [1], the “reduction of viral load” value is reported as 2 logs and the “ZIKV genome copies/mL” value is 1.0 ± 0.1 × 10^6 copies/mL. In data set [2] (setting [11]), the CC50 at 48 h is 130 ± 2 µM. For the same compound, in data set [3] (48 h, 48 h), the inhibition at 6 µM was determined as 75.3 ± 1.3% and the inhibition at 25 µM was 100%. Further, the inhibition at 12 µM in data set [3] (48 h, MOI 10, 12 µM, 48 h) turned out to be 94.2 ± 0.5%. In data set [3], this compound came in with an EC50 of 3.6 ± 0.2 µM and an EC90 of 9.6 ± 0.6 µM. For the same compound, in data set [6], the inhibition at 12 µM stood at 100%. This compound also had a CC50 at 48 h in [8] of 97 ± 0.5 µM.
Turning to `COc1ncnc(NS(=O)(=O)c2ccc(N)cc2)c1OC` [sulfadoxine], the IC50 in data set [10] was more than 15.5 µM.
Take `O=S(=O)(NCCCNc1ccnc2cc(Cl)ccc12)c1ccc(Br)cc1` [C-Sd2, 4-Bromo-N-(3-((7-chloroquinolin-4-yl)amino)propyl)-benzenesulfonamide]: in data set [1], the “reduction of viral load” value is recorded as 2 logs and the “ZIKV genome copies/mL” value is given as 2.8 ± 0.4 × 10^6 copies/mL. Further, in data set [2] (setting [11]), the CC50 at 48 h is 112 ± 1.8 µM. In [3] (48 h, 48 h), the inhibition at 6 µM came out at 80.8 ± 0.8% and the inhibition at 25 µM came to 100%. The inhibition at 12 µM in [3] (48 h, MOI 10, 12 µM, 48 h) turned out to be 93.7 ± 0.3%. In data set [3], the EC50 turned out to be 3.3 ± 0.2 µM and the EC90 was 7.8 ± 0.4 µM. Moreover, in data set [6], the inhibition at 12 µM is 100%. In data set [8], this compound came in with a CC50 at 48 h of 56.7 ± 0.4 µM.

The values above are taken from paper PMC7823661 (Viruses, 2020).
